Test results: article PMC10578927, “An unconventional gatekeeper mutation sensitizes inositol hexakisphosphate kinases to an allosteric inhibitor” (eLife, 2023)
Substitutions are numbered along the chain they refer to. Like-named read-outs stand apart in the source and are kept apart here.

Key:
[1] = biological target: T1, IP6K2^wt (Homo sapiens, UniProt Q9UHH9); test: NMR activity assay, [13C6]-InsP6 to 5PP-InsP5; assay type: biochemical
T1 construct: made in house; host or cells: E. coli Arctic Express
T1 sequence (Q9UHH9 1-426): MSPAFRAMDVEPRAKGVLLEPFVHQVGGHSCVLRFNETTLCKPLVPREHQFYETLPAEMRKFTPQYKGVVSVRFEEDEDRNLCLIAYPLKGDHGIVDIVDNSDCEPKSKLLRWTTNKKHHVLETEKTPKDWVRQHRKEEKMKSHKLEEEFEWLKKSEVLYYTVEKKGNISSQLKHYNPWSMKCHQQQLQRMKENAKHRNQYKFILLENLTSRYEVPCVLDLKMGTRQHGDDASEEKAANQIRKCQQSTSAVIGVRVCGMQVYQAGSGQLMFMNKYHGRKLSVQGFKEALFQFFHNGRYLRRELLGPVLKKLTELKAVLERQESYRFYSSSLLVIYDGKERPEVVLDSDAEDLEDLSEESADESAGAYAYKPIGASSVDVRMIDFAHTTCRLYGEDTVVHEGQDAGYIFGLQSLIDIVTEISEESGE
Method: (§1) The NMR assay for IP6K activity was performed similarly as described before ([Harmel et al., 2019]) with slight alterations. Enzyme assays were performed in D2O in a total volume of 150 µl containing 20 mM 4-(2-hydroxyethyl)-1-piperazineethanesulfonic acid (HEPES) pH* 6.8, 50 mM NaCl, 6 mM MgCl2, 1 mM ATP, 0.2 mg/ml BSA, 1 mM DTT, 5 mM creatine phosphate and 1 U/ml creatine kinase (ATP-regenerating system) and 50 nM kinase if not otherwise stated. HEPES, NaCl, and BSA were prepared as buffer A and DTT and creatine phosphate as buffer B in D2O and were adjusted to pH* 6.8, respectively. If applicable, inhibitor was added as a DMSO-d6 stock in a twofold dilution series at a final DMSO concentration of 1% if not otherwise mentioned. Otherwise, DMSO-d6 was added to the same percentage. The samples were equilibrated at 37°C for 3 min and the reaction initiated by adding 100 µM [^13C6]-InsP6.

[2] = biological target: T2, IP6K2^L206V (Homo sapiens, UniProt Q9UHH9, L206V); test: NMR activity assay, [13C6]-InsP6 to 5PP-InsP5; assay type: biochemical
T2 construct: made in house; host or cells: E. coli Arctic Express
T2 sequence (Q9UHH9 1-426 L206V): T1 sequence (Q9UHH9 1-426) with L206V
Method: as §1

O=C(O)c1ccc2c(c1)C(=O)N(c1ccc(-c3nc4ccc(N5C(=O)c6ccc(C(=O)O)cc6C5=O)cc4[nH]3)cc1)C2=O [FMP-201300]
IC50 [1]: 2140 nM
IC50 ([1]; Figure 4b): 2140 nM
IC50 ([2]; NMR assay): 186 nM
times more potent against IP6K2^L206V compared to IP6K2^wt ([2]; ratio of IC50 values): 11
